{"source": "paper PMC7062083", "about": "“Metabolite identification, tissue distribution, excretion and preclinical pharmacokinetic studies of ET-26-HCl, a new analogue of etomidate” (Royal Society Open Science, 2020)", "key": {"[1]": {"assay": "Plasma protein binding, equilibrium dialysis, beagle dog plasma", "type": "in vitro ADME", "protocol": "The PPB of ET-26-HCl in mouse, rat, beagle dog, monkey and human plasma was determined according to the equilibrium dialysis method. In brief, 1 ml of control plasma samples in dialysis bag was incubated in 10 ml of PBS containing ET-26-HCl at a final concentration of 2.21 × 10^2, 1.77 × 10^3 and 3.54 × 10^3 […] at 4°C with an equilibrium time of 9 h to reach the mass balance binding condition. A 100 µl aliquots of the PBS buffer and the plasma in the dialysis bag were transferred to 2 ml EP tubes and diluted to 995 µl with PBS and analysed on the LC–MS/MS system. The PPB (fppb) was calculated as follows: fppb=Din−Dout/Din×100% , where Din is the plasma drug concentration in the dialysis bag and Dout is the dialysate drug concentration."}, "[2]": {"assay": "Pharmacokinetics in beagle dogs after intravenous administration", "type": "in vivo", "settings": "beagle dogs; for λ: i.v.; for Vd / half-life / AUC0-t / Cmax / clearance: both sexes, dog, plasma, iv; for Vd / half-life: beagle", "protocol": "Concentrations of ET-26-HCl and ET-26-acid in biological samples were determined by liquid chromatography–tandem mass spectrometry (LC–MS/MS) after deproteinization with methanol. The bioanalytical method for simultaneous quantification of ET-26-HCl and ET-26-acid in the different matrix was fully validated according to FDA guidelines (electronic supplementary material, figure S1 and tables S1 and S2) in our previous study. Briefly, a 100 µl sample (plasma, tissue homogenate, bile, urine and faeces suspension) were spiked with 20 µl of IS solution and vortexed for 30 s. The mixture was then processed for protein precipitation with 300 µl methanol, followed by centrifugation at 12 000 r.p.m. for 5 min. Supernatant was collected and analysed by LC–MS/MS system.\nThe LC–MS/MS was performed as described previously. Briefly, ET-26-HCl, ET-26-acid and GBP were separated using a CAPCELL PAK C18 column (50 × 2.00 mm, 5.00 µm) as well as a Security Guard Cartridge (C18, 4 mm × 3.00 mm i.d., Phenomenex). The mobile phase consisting of 0.3% formic acid water (A), and methanol (B) was pumped at a flow rate of 0.6 ml min^−1. The gradient elution was achieved according to the following protocol: 0 min to about 0.50 min, A/B (41/9, v/v); 0.51 min to about 1.5 min, A/B (1/9, v/v); and 1.51 min to about 2.00 min, A/B ([…], v/v). Mass spectrometry was conducted on an API 3000 mass spectrometer (Sciex, Framingham, MA, USA) equipped with an electrospray ionization (ESI) source operating in positive mode. The MS/MS system was in the multiple reaction monitoring (MRM) mode, using the m/z transitions of 275.6/170.9 for ET-26-HCl, 217.7/113.1 for ET-26-acid and 172.5/154.3 for GBP (IS), respectively. The API 3000 mass parameters were set according to the following protocol: curtain gas, 6 psi; collision gas, 8 psi; nebulizer, 4 psi; ion spray voltage, 3000 V and ion source temperature, 450°C. The autosampler was conditioned at 4°C, and the injection volume was 5 µl. The linear ranges of this analytical method for ET-26-HCl and for ET-26-acid from all biological samples are shown in electronic supplementary material, table S3.\nBeagle dogs, weighing 9–11 kg, were purchased from Sichuan Industrial of Antibiotics, China National Pharmaceutical Group Corporation (Chengdu, China). A 3 × 3 crossover experimental design with 24 beagles (equal number of male and female dogs) randomly divided into six groups was conducted. Beagle dogs in the six groups received three doses of ET-26-HCl: 1.045 mg kg^−1, 2.090 mg kg^−1 and 4.180 mg kg^−1 as low (L), medium (M) and high (H) dose. Blood samples (2 ml) were collected from the elbow vein in 4 ml heparinized tubes before dosing, and at 1, 3, 5, 10, 20, 30, 120 and 180 min post-dosing. All blood samples were centrifuged at 8000 r.p.m. for 10 min and plasma collected and stored at −80°C until analysis.\nAll calculations were performed on Microsoft Excel 2016 (Microsoft Co., USA). The Drug and Statistics 3.2.7 (DAS 3.2.7) software package (Mathematical Pharmacology Professional Committee of China, China) was used to acquire the main pharmacokinetic parameters of ET-26-HCl. All data were shown as mean ± standard deviation (s.d.). Statistical significances were calculated by one-way analysis of variance (ANOVA)."}, "[3]": {"assay": "Metabolic stability in dog liver microsomes", "type": "in vitro ADME", "settings": "for half-life: pH 7.4", "protocol": "Samples were analysed by LC–MS/MS as mentioned above.2.1 CLint, in vitro=0.693/t1/2/Cprotein, 2.2 CLint, in vivo=CLint, in vitro×Houston×LW/1000 2.3 andCLhep in vivo=HBF × fu ×CLint, in vivo/HBF + fu ×CLint, in vivo. Where Cprotein is microsomal protein concentration (mg ml^−1); Houston is Houston factor (45 mg of microsomal protein g^−1 liver); LW is liver weight (g) (per species); HBF is hepatic blood flow (ml min^−1) (per species); fu (two places) and later is unbound fraction (fu = 1 − %protein binding)."}, "[4]": {"settings": "dog liver microsomes, Cprotein 0.33 mg ml^−1"}}, "note": "Where “and” joins values, the source holds several entries; their conditions need not be identical. Identical values can stand only once. Like-named read-outs stand apart in the source and are kept apart here."}
{"smiles": "COCCOC(=O)c1cncn1[C@H](C)c1ccccc1.Cl", "note": "[ET-26-HCl, (R)-2-methoxyethyl1-(1-phenylethyl)-1H-imidazole-5-carboxylate hydrochloride]", "values": [{"measurement": "fraction unbound at 9 h", "setting": "[1]; beagle dog plasma, overall over the three concentrations, read-out: plasma protein binding rate (converted)", "result": 0.34}, {"measurement": "fraction unbound at 9 h, 654 ng ml^−1", "setting": "[1]; dog plasma, measured concentration 654 ng ml^−1", "result": 0.345}, {"measurement": "fraction unbound at 9 h", "setting": "[1]; dog plasma, measured concentration 2.62 × 10^3 ng ml^−1, read-out: protein binding (converted)", "result": 0.369}, {"measurement": "fraction unbound at 9 h", "setting": "[1]; dog plasma, measured concentration 5.23 × 10^3 ng ml^−1, read-out: protein binding (converted)", "result": 0.306}, {"measurement": "λ", "setting": "[2]; 1.045 mg kg^−1", "result": "0.78 ± 0.06 1 h^−1"}, {"measurement": "λ", "setting": "[2]; 2.09 mg kg^−1", "result": "0.54 ± 0.06 1 h^−1"}, {"measurement": "λ", "setting": "[2]; 4.18 mg kg^−1", "result": "0.36 ± 0.06 1 h^−1"}, {"measurement": "Vd", "setting": "[2]; 1.045 mg/kg, 1.045 mg kg^−1", "result": "2.54 ± 0.29", "unit": "L/kg"}, {"measurement": "half-life", "setting": "[2]; 1.045 mg/kg, 1.045 mg kg^−1", "result": "55.2 ± 4.8", "unit": "min"}, {"measurement": "Vd", "setting": "[2]; 2.09 mg/kg, 2.09 mg kg^−1", "result": "~4", "unit": "L/kg"}, {"measurement": "half-life", "setting": "[2]; 2.09 mg/kg, 2.09 mg kg^−1", "result": "~60", "unit": "min"}, {"measurement": "Vd", "setting": "[2]; 4.18 mg/kg, 4.18 mg kg^−1", "result": "4.63 ± 0.67", "unit": "L/kg"}, {"measurement": "half-life", "setting": "[2]; 4.18 mg/kg, 4.18 mg kg^−1", "result": "130 ± 30", "unit": "min"}, {"measurement": "AUC0-t", "setting": "[2]; 1.045 mg kg^−1", "result": 30100, "unit": "ng·h/mL"}, {"measurement": "Cmax", "setting": "[2]; 1.045 mg kg^−1", "result": "1480 ± 140", "unit": "ng/mL"}, {"measurement": "clearance", "setting": "[2]; 1.045 mg kg^−1", "result": 32, "unit": "mL/min/kg"}, {"measurement": "AUC0-t", "setting": "[2]; 2.09 mg kg^−1", "result": 62700, "unit": "ng·h/mL"}, {"measurement": "Cmax", "setting": "[2]; 2.09 mg kg^−1", "result": "2850 ± 220", "unit": "ng/mL"}, {"measurement": "clearance", "setting": "[2]; 2.09 mg kg^−1", "result": 30, "unit": "mL/min/kg"}, {"measurement": "AUC0-t", "setting": "[2]; 4.18 mg kg^−1", "result": 130000, "unit": "ng·h/mL"}, {"measurement": "Cmax", "setting": "[2]; 4.18 mg kg^−1", "result": "6230 ± 240", "unit": "ng/mL"}, {"measurement": "clearance", "setting": "[2]; 4.18 mg kg^−1", "result": 25, "unit": "mL/min/kg"}, {"measurement": "half-life", "setting": "[3]; beagle, dog liver microsomes, Cprotein 0.33 mg ml^−1", "result": "< 5", "unit": "min"}, {"measurement": "CLint, in vitro", "setting": "[3]; dog liver microsomes", "result": 466, "unit": "ml min g^−1 protein"}, {"measurement": "metabolic stability (in words)", "setting": "[3]; dog liver microsomes", "result": "not metabolically stable"}, {"measurement": "CLint, in vitro", "setting": "[3]; [4]", "result": "466 ± 12.3", "unit": "ml min^−1 g^−1 protein"}, {"measurement": "extrapolated hepatic clearance normalized to body weight", "setting": "[3]; dog, assumed body weight 10 kg (printed order)", "result": 4.58, "unit": "L·h/kg"}, {"measurement": "extrapolated CLhep in vivo", "setting": "[3]; dog, from liver microsomes", "result": "296 mL/min and 296 ± 0.35 mL/min"}, {"measurement": "extrapolated CLint, in vivo", "setting": "[3]; dog, from liver microsomes", "result": "6712 ± 117", "unit": "mL/min"}, {"measurement": "half-life", "setting": "[3]; [4]", "result": "4.5 ± 0.1", "unit": "min"}]}
